Assay results taken from publication PMC4715021, “^177Lu-labelled macrocyclic bisphosphonates for targeting bone metastasis in cancer treatment” (EJNMMI Research, 2016).
“And” between values parts separate entries of the source, which are not always exact repeats. Equal entries are not always repeated.

Experiments:
[1] = Metabolite analysis and in vivo stability, arterial blood and urine samples; set-up: species or system Wistar rats
From the text: (§1) The experiments were realized corresponding to the German animal welfare regulations and institutional guidelines and with the permission of the local animal research committee at the Landesdirektion, Dresden. All experimental procedures are following the guidelines of the European Convention for the Protection of Vertebrate Animals used for Experimental and other Scientific Purposes (ETS No. 123). Male Wistar rats weighing 157.69 ± 17.10 g (mean ± SD, N = 35) were purchased from Unilever (HsdCpb:WU, Harlan Winkelmann, Borchen, Germany). Anesthetization was initiated and maintained by desflurane, and animals were put in the supine position and placed on a heating pad to maintain body temperature. A needle catheter was used for administration of the tracers in the tail vein. A second catheter was introduced into the right femoral artery for the extraction of blood samples for metabolite analysis, which was routinely done during SPECT/CT measurements.
Arterial blood plasma samples were taken during SPECT/CT examinations after 1, 3, 5, 10, 20, 30, 60, and 120 min. p.i., and the in vivo metabolism of [^177Lu]BPAMD, [^177Lu]BPAPD, [^177Lu]BPPED, [^177Lu]NO2AP^BP, [^177Lu]DOTA(M^BP)2, and [^177Lu]DO2A(P^BP)2 was analyzed. Plasma was separated by centrifugation (3 min, 11,000×g) followed by precipitation of the plasma proteins with ice-cold methanol (1.5 parts per 1 part plasma) and centrifugation (3 min, 11,000×g). The supernatants were analyzed by radio-TLC and HPLC using the abovementioned methods for quality control. Additionally, urine samples were treated in the same way prior radio-TLC and radio-HPLC analysis.

[2] = Ex vivo biodistribution of 177Lu-complexes in Wistar rats; details: for Biodistribution of radioactivity, Adipose tissue / Biodistribution of radioactivity, Adrenal gland / Biodistribution of radioactivity, Blood / Biodistribution of radioactivity, Brain / Biodistribution of radioactivity, Femur / Biodistribution of radioactivity, Harderian gland / Biodistribution of radioactivity, Heart / Biodistribution of radioactivity, Kidneys / Biodistribution of radioactivity, Liver / Biodistribution of radioactivity, Lung / Biodistribution of radioactivity, Muscle / Biodistribution of radioactivity, Pancreas / Biodistribution of radioactivity, Spleen / Biodistribution of radioactivity, Testes / Biodistribution of radioactivity, Thymus: i.v.
From the text: as §1
The male Wistar rats received a short-term anesthetization by desflurane inhalation. Mean activities of 2.36 ± 0.27 MBq/kg of the ^177Lu-labelled tracers in isotonic saline were injected in a volume of 0.5 mL in the tail vein, with the following specific details: [^177Lu]citrate: 2.56 ± 0.07 MBq/kg, 128.58 body weight (BW, g), n = 4 (g); [^177Lu]BPAMD: 2.33 ± 0.11 MBq/kg, 159.41 BW (g), n = 4 (g); [^177Lu]BPAPD: 2.58 ± 0.24 MBq/kg, 156.38 BW (g), n = 4 (g); [^177Lu]BPPED: 2.27 ± 0.25 MBq/kg, 153.43 BW (g), n = 4 (g); [^177Lu]NO2AP^BP: 2.52 ± 0.25 MBq/kg, 173.82 BW (g), n = 4 (g); [^177Lu]DOTA(M^BP)2: 1.80 ± 0.10 MBq/kg, 181.64 BW (g), n = 4 (g); [^177Lu]DO2A(P^BP)2: 2.46 ± 0.15 MBq/kg, 150.60 BW (g), n = 4 (g). The compounds [^177Lu]DOTA(M^BP)2, [^177Lu]BPPED, and [^177Lu]BPAMD were further chosen for a biodistribution study after 8 days p.i. A mean activity of 19.0 ± 2.5 MBq/kg was injected. Animals were sacrificed after 5 min, 60 min, and 8 days p.i. Organs of interest were excised rapidly and weighed, and the ^177Lu activity was determined with a Wallac WIZARD automatic gamma counter (PerkinElmer, Germany) and decay corrected. The distribution data are expressed in %ID or are normalized to the BW as standard uptake value (SUV), which was calculated with the formula: SUV = (activity per g tissue)/(injected activity) × BW. The skeleton weight was calculated using the following: skeleton weight = 9.66 + 0.0355 × BW, and the total activities associated with the skeleton were calculated by using the activity concentration in the femur and the total skeleton weight.

[3] = 5 min p.i., mean of four animals
[4] = 60 min p.i., mean of four animals
[5] = 8 days p.i., mean for five animals

Blood half-life of the slow component (t1/2(β)) ([1]; arterial blood, single intravenous injection): 18.7 min | Metabolization in blood samples (radio-HPLC and TLC) ([1]; within a period of 120 min): no evidence of any metabolization | Ratio Bone/Adipose tissue ([2]; 5 min p.i.): 17.3 | Ratio Bone/Adrenal gland ([2]; 5 min p.i.): 5.9 | Ratio Bone/Blood ([2]; 5 min p.i.): 3.2 | Ratio Bone/Brain ([2]; 5 min p.i.): 104.0 | Ratio Bone/Harderian gland ([2]; 5 min p.i.): 10.4 | Ratio Bone/Heart ([2]; 5 min p.i.): 8.0 | Ratio Bone/Kidneys ([2]; 5 min p.i.): 1.3 | Ratio Bone/Liver ([2]; 5 min p.i.): 8.7 | Ratio Bone/Lung ([2]; 5 min p.i.): 5.5 | Ratio Bone/Muscle ([2]; 5 min p.i.): 17.3 | Ratio Bone/Pancreas ([2]; 5 min p.i.): 11.2 | Ratio Bone/Spleen ([2]; 5 min p.i.): 10.7 | Ratio Bone/Testes ([2]; 5 min p.i.): 11.6 | Ratio Bone/Thymus ([2]; 5 min p.i.): 10.9 | Biodistribution of radioactivity, Adipose tissue [2, 3]: 0.24 SUV | Biodistribution of radioactivity, Adrenal gland [2, 3]: 0.70 SUV | Biodistribution of radioactivity, Blood [2, 3]: 1.30 SUV | Biodistribution of radioactivity, Brain [2, 3]: 0.04 SUV | Biodistribution of radioactivity, Femur [2, 3]: 4.16 SUV | Biodistribution of radioactivity, Harderian gland [2, 3]: 0.40 SUV | Biodistribution of radioactivity, Heart [2, 3]: 0.52 SUV | Biodistribution of radioactivity, Kidneys [2, 3]: 3.09 SUV | Biodistribution of radioactivity, Liver [2, 3]: 0.48 SUV | Biodistribution of radioactivity, Lung [2, 3]: 0.75 SUV | Biodistribution of radioactivity, Muscle [2, 3]: 0.24 SUV | Biodistribution of radioactivity, Pancreas [2, 3]: 0.37 SUV | Biodistribution of radioactivity, Spleen [2, 3]: 0.39 SUV | Biodistribution of radioactivity, Testes [2, 3]: 0.36 SUV | Biodistribution of radioactivity, Thymus [2, 3]: 0.38 SUV | Ratio Bone/Adipose tissue ([2]; 60 min p.i.): 269.7 | Ratio Bone/Adrenal gland ([2]; 60 min p.i.): 72.5 | Ratio Bone/Blood ([2]; 60 min p.i.): 92.9 | Ratio Bone/Brain ([2]; 60 min p.i.): 419.9 | Ratio Bone/Harderian gland ([2]; 60 min p.i.): 36.4 | Ratio Bone/Heart ([2]; 60 min p.i.): 141.1 | Ratio Bone/Kidneys ([2]; 60 min p.i.): 14.9 | Ratio Bone/Liver ([2]; 60 min p.i.): 42.3 | Ratio Bone/Lung ([2]; 60 min p.i.): 67.5 | Ratio Bone/Muscle ([2]; 60 min p.i.): 355.8 | Ratio Bone/Pancreas ([2]; 60 min p.i.): 181.6 | Ratio Bone/Spleen ([2]; 60 min p.i.): 41.0 | Ratio Bone/Testes ([2]; 60 min p.i.): 185.1 | Ratio Bone/Thymus ([2]; 60 min p.i.): 212.0 | Biodistribution of radioactivity, Adipose tissue [2, 4]: 0.02 SUV | Biodistribution of radioactivity, Adrenal gland [2, 4]: 0.08 SUV | Biodistribution of radioactivity, Blood [2, 4]: 0.06 SUV | Biodistribution of radioactivity, Brain [2, 4]: 0.01 SUV | Biodistribution of radioactivity, Femur [2, 4]: 5.67 ± 0.10 SUV and 5.67 SUV | Biodistribution of radioactivity, Harderian gland [2, 4]: 0.16 SUV | Biodistribution of radioactivity, Heart [2, 4]: 0.04 SUV | Biodistribution of radioactivity, Kidneys [2, 4]: 0.38 SUV | Biodistribution of radioactivity, Liver [2, 4]: 0.13 SUV | Biodistribution of radioactivity, Lung [2, 4]: 0.08 SUV | Biodistribution of radioactivity, Muscle [2, 4]: 0.02 SUV | Biodistribution of radioactivity, Pancreas [2, 4]: 0.03 SUV | Biodistribution of radioactivity, Spleen [2, 4]: 0.14 SUV | Biodistribution of radioactivity, Testes [2, 4]: 0.03 SUV | Biodistribution of radioactivity, Thymus [2, 4]: 0.03 SUV | Ratio Bone/Adipose tissue ([2]; 8 days p.i.): 1231 | Ratio Bone/Adrenal gland ([2]; 8 days p.i.): 159 | Ratio Bone/Blood ([2]; 8 days p.i.): 5123 | Ratio Bone/Brain ([2]; 8 days p.i.): 365 | Ratio Bone/Harderian gland ([2]; 8 days p.i.): 46 | Ratio Bone/Heart ([2]; 8 days p.i.): 653 | Ratio Bone/Kidneys ([2]; 8 days p.i.): 59 | Ratio Bone/Liver ([2]; 8 days p.i.): 189 | Ratio Bone/Lung ([2]; 8 days p.i.): 637 | Ratio Bone/Muscle ([2]; 8 days p.i.): 192 | Ratio Bone/Pancreas ([2]; 8 days p.i.): 1104 | Ratio Bone/Spleen ([2]; 8 days p.i.): 246 | Ratio Bone/Testes ([2]; 8 days p.i.): 1214 | Ratio Bone/Thymus ([2]; 8 days p.i.): 933 | Biodistribution of radioactivity, Adipose tissue [2, 5]: 0.004 SUV | Biodistribution of radioactivity, Adrenal gland [2, 5]: 0.033 SUV | Biodistribution of radioactivity, Blood [2, 5]: 0.001 SUV | Biodistribution of radioactivity, Brain [2, 5]: 0.014 SUV | Biodistribution of radioactivity, Femur [2, 5]: 5.197 SUV | Biodistribution of radioactivity, Harderian gland [2, 5]: 0.113 SUV | Biodistribution of radioactivity, Heart [2, 5]: 0.008 SUV | Biodistribution of radioactivity, Kidneys [2, 5]: 0.088 SUV | Biodistribution of radioactivity, Liver [2, 5]: 0.027 SUV | Biodistribution of radioactivity, Lung [2, 5]: 0.008 SUV | Biodistribution of radioactivity, Muscle [2, 5]: 0.027 SUV | Biodistribution of radioactivity, Pancreas [2, 5]: 0.005 SUV | Biodistribution of radioactivity, Spleen [2, 5]: 0.021 SUV | Biodistribution of radioactivity, Testes [2, 5]: 0.004 SUV | Biodistribution of radioactivity, Thymus [2, 5]: 0.006 SUV | Total skeletal retention ([2]; 8 days p.i., calculated from femur activity concentration and total skeleton weight): constant over 8 days | Total skeleton retention ([2]; after 60 min, calculated from femur activity concentration and total skeleton weight): 56.3 ± 6.7 %ID
SMILES: O=C(O)CN1CCN(CC(=O)O)CCN(CP(=O)(O)CC(P(=O)(O)O)P(=O)(O)O)CCN(CC(=O)O)CC1 [[^177Lu]BPPED, metal not drawn]
